According to publication PMC5571359, “Screening the Medicines for Malaria Venture Pathogen Box across Multiple Pathogens Reclassifies Starting Points for Open-Source Drug Discovery” (Antimicrobial Agents and Chemotherapy, 2017):
pIC50: −log10 of the molar value. Where two headings read alike, the source gives them in different places.

Key:
[1] = tested on: T. b. brucei 427 bloodstream trypanosomes; test: T. b. brucei resazurin viability assay; type: cell-based, Trypanosoma brucei brucei
[2] = tested on: T. cruzi C4 β-galactosidase reporter parasite in MRC 5SV2 host cells; settings: cited from earlier work
[3] = tested on: T. brucei brucei; settings: ref Pbox supporting information, cited from earlier work
[4] = tested on: T. brucei rhodesiense; settings: ref Pbox supporting information, cited from earlier work; for pIC50: read-out: T .b. rohdensie Pbox IC50
[5] = tested on: L. infanium (macrophages); design: method as in Pbox supporting information; settings: ref Pbox supporting information; cited from earlier work
[6] = tested on: HEK293 cells; test: HEK293 resazurin cell cytotoxicity assay; settings: for pIC50 / inhibition at 20 µM: Homo sapiens
[7] = tested on: L. donovani MHOM/IN/80/DD8 intracellular amastigotes; test: Leishmania donovani intracellular amastigote assay in THP-1 cells; type: cell-based; settings: Leishmania donovani, THP-1; intracellular amastigotes; some values marked *; read-out: L, donovani Discovery Biology IC50
[8] = tested on: HepG2; settings: cited from earlier work
[9] = tested on: Plasmodium falciparum 3D7 asexual blood stage; test: microbe, parasite or virus in culture
[10] = tested on: NF54-pfs16-LUC-GFP stage IV gametocytes; test: Plasmodium falciparum late stage gametocyte (LSG) image-based assay; type: cell-based
[11] = tested on: T. cruzi intracellular amastigotes; test: Intracellular anti-Trypanosoma cruzi image-based assay (amastigotes); type: cell-based; settings: for pIC50 / Emax: Trypanosoma cruzi; for Emax: PBox kinetoplastid set compounds active against T. cruzi alone, read-out: Emax against T. cruzi (subefficacious effect)
[12] = Trypanosoma brucei; PBox compounds; read-out: IC50 T. brucei brucei (Discovery Biology)
[13] = Trypanosoma brucei; read-out: T b.brucei Discovery Biology IC50
[14] = ref Pbox supporting information, read-out: T. cruzi Pbox IC50
[15] = read-out: T.b. brucei Pbox IC50
[16] = HEK293, read-out: HEK % Inhibition 20uM/IC50 Discovery Biology
[17] = HepG2, ref PBox supporting information
[18] = 3D7, read-out: Antiplasmodial IC50 (ABS), PBox compounds, P. falciparum 3D7
[19] = Plasmodium falciparum, NF54, read-out: Pf Stage IV GAMS Discovery Biology IC50, stage IV gametocytes
[20] = 7 days exposure, ref PBox supporting information, read-out: T. cruzi IC50 in the PBox supporting information file
[21] = Plasmodium falciparum, NF54, read-out: Antiplasmodial IC50 (GAM / LSG), PBox compounds, stage IV gametocytes, single determination
[22] = intracellular amastigotes, read-out: T cruzi Discovery Biology IC50
[23] = PBox compounds, intracellular amastigotes, 48 h exposure, read-out: IC50 T. cruzi (Discovery Biology)

Structure (SMILES) | pIC50 [1, 13] | pIC50 [2, 14] | pIC50 [3, 15] | pIC50 [4] | pIC50 [5] | pIC50 [6, 16] | HepG2 PBox CC20 [8, 17] | pIC50 [11, 22] | other results
CCC(=O)Nc1ccccc1C(=O)Nc1ccccn1 [MMV202553] | 6.00 | < 4.19 | 5.61 | 5.88 | < 4.19 | < 4.70 | – | – | pIC50 [1, 12]: 6.00
CCN(CC)S(=O)(=O)c1ccc(C(=O)Nc2cc(C)nn2-c2nc(C)c(C)c(=O)[nH]2)cc1 [MMV595321] | 5.36 | 5.71 | 5.28 | 5.77 | 5.16 | – | – | – | activity in the HEK293 cytotoxicity assay [6]: comparable activity; inhibition at 20 µM [6, 16]: 74%
O=C(Nc1ccc2c(c1)B(O)OC2)c1ccccc1C(F)(F)F [MMV652003] | 6.96 | 6.57 | 6.82 | 6.64 | 5.85 | – | 0.4 µM | – | pIC50 [7]: 5.90; pIC50 [9, 18]: 6.04; inhibition at 20 µM [6, 16]: 78%
CO[C@@H](C(=O)N1Cc2n[nH]c(NC(=O)c3ccc(N4CCN(C)CC4)cc3)c2C1)c1ccccc1 [MMV676600] | 5.87 | 5.19 | 5.99 | 6.43 | 5.39 | – | 4.8 µM | – | inhibition at 20 µM [6, 16]: 45%
c1ccc(Oc2ccc(-c3cc(N4CCNCC4)[nH]n3)cc2)cc1 [MMV687706] | 5.30 | 5.35 | 6.00 | 6.01 | 5.39 | < 4.70 | 6.4 µM | – | –
N=C(N)Nc1ccc(-c2ccc(-c3ccc(NC(=N)N)cc3Cl)o2)c(Cl)c1 [MMV688179] | 5.25 | 6.54 | 5.99 | 6.64 | 6.00 | < 4.70 | 6.8 µM | – | pIC50 [10, 19]: 5.39; activity against T. cruzi in the Discovery Biology assay [11]: lack of activity; activity against T. cruzi at 8 μM in the Discovery Biology assay [11]: no activity; pIC50 [2, 20]: > 6.00; pIC50 [9, 18]: 6.23
Cc1nn(C)c(C)c1NS(=O)(=O)c1c(Cl)cc(-c2ccnc(N3CCNCC3)c2)cc1Cl [MMV688180] | – | 6.07 | > 6.89 | > 6.89 | 6.00 | – | 0.0454 µM | – | pIC50 ([11]; read-out: T cruzi Discovery Biology IC50): 5.54; pIC50 ([1]; Trypanosoma brucei, read-out: T b.brucei Discovery Biology IC50): 8.00; pIC50 ([9]; 3D7, read-out: Pf 3D7 Discovery Biology IC50, P. falciparum 3D7 asexual blood stage): 6.20; pIC50 ([6]; HEK293, read-out: HEK % Discovery Biology IC50): 6.18
CC1=Nc2ccc(Cl)cc2C(O)(c2ccc(C)cc2)N1CCN1CCCCC1 (stereo not shown) [MMV688279] | 5.34 | 5.39 | 6.01 | 6.37 | 5.39 | < 4.70 | 10.0 µM | – | pIC50 [10, 21]: 5.62; pIC50 ([10]; read-out: Antiplasmodial IC50 (GAM / LSG), PBox compounds, stage IV gametocytes, single determination): 5.63; pIC50 [9, 18]: 6.49
COc1cc(C2=NCCN2)cc2cc(-c3ccc(C4=NCCN4)cc3)oc12 [MMV688362] | – | 4.88 | 4.84 | 6.11 | < 4.49 | < 4.70 | 14.3 µM | – | pIC50 [10, 19]: 5.18; pIC50 [9, 18]: 6.23
NCCN(C(=O)c1ccc(Cl)cc1Cl)c1ccc(OCc2ccc(Cl)cc2)cc1 [MMV688371] | 6.62 | 6.21 | > 6.89 | > 6.89 | 6.20 | < 4.70 | – | 5.36 | activity against T. brucei rhodesiense [4]: demonstrated activity
CO[C@@H]1CN(c2ccc(C#CC3(O)CN4CCC3CC4)c(Cc3ccccc3)n2)C[C@H]1O (stereo partly shown) [MMV688415] | – | > 6.89 | 4.79 | 5.40 | 4.76 | < 4.70 | – | 7.00 | Emax [11]: < 100%; HepG2 PBox CC20 [8]: 38.4 µM
CCCCN(CCCC)c1c(C#N)cc(S(=O)(=O)Nc2ccccc2)cc1C#N [MMV688467] | 5.94 | 6.09 | 6.59 | 6.62 | 4.87 | < 4.70 | 11.9 µM | – | pIC50 [11, 23]: 5.40
N=C(N)c1ccc(-c2cc(-c3ccccc3)on2)cc1 [MMV688514] | 5.45 | 5.39 | 5.39 | 5.97 | 5.60 | < 4.70 | 2.6 µM | – | –
COc1ccc(C2=NCCN2)cc1-c1cn(-c2cccc(C3=NCCN3)c2)nn1 [MMV688547] | – | < 4.49 | < 4.49 | 5.79 | < 4.49 | < 4.70 | >80 µM | – | pIC50 [9, 18]: 5.99
CCc1ccccc1-n1c(C)cn2c3c(=O)n(C(C(=O)OC)C(C)C)c(=O)n(C)c3nc12 (stereo not shown) [MMV688550] | 6.89 | 6.00 | > 6.89 | > 6.89 | < 4.49 | < 4.70 | 44.3 µM | 6.19 | selectivity index (SI) T. cruzi versus HEK293 ([11]; HEK293): > 31; selectivity index (SI) T. brucei brucei versus HEK293 ([1]; HEK293): > 154; pIC50 [9, 18]: 5.61
CO/N=C(\C(=O)OC)c1ccccc1CO/N=C(\C)c1cccc(C(F)(F)F)c1 [MMV688754] | – | 5.71 | 4.47 | 4.58 | < 4.19 | < 4.70 | – | – | pIC50 [10, 21]: 6.85; pIC50 ([9]; 3D7, read-out: Antiplasmodial IC50 (ABS)): 6.72
Cc1nn2c(=O)c3c([nH]c2c1-c1ccc(Cl)cc1)CCCC3 [MMV688776] | 5.75 | 6.14 | 6.30 | 6.85 | 4.36 | < 4.70 | – | – | activity against T. cruzi at 8 μM in the Discovery Biology assay [11]: no activity; pIC50 [2, 20]: > 6.00
Cc1cccnc1NC(=O)c1cccc(OCc2c(C)noc2C)c1 [MMV688793] | 5.94 | < 4.19 | 5.68 | 6.19 | < 4.19 | < 4.70 | – | – | pIC50 [1, 12]: 5.92
O=C(NCCc1ccn(-c2ccccc2)n1)C1CCCCC1 [MMV688795] | 6.57 | 6.13 | 6.82 | > 6.89 | < 4.19 | < 4.70 | – | 6.03 | –
O=C(NCc1nnc2n1CCCCC2)c1ccc(-c2ccc(F)cc2)o1 [MMV688796] | 6.64 | 5.68 | 7.00 | 6.89 | < 4.19 | < 4.70 | – | 5.82 | activity against T. brucei rhodesiense [4]: demonstrated activity
CC1CCCCN1C(=O)NCCc1coc(-c2ccc(F)cc2)n1 (stereo not shown) [MMV688797] | 6.89 | 6.32 | 6.89 | 6.96 | < 4.19 | < 4.70 | – | 6.43 | –
CS(=O)(=O)c1ccccc1C(=O)N(Cc1ccccc1)c1ccccc1 [MMV688798] | 6.30 | 4.45 | 6.25 | 6.40 | < 4.19 | < 4.70 | – | – | –
CC(C)(C)C(O)C(Oc1ccc(-c2ccccc2)cc1)n1cncn1 (stereo not shown) [MMV688942, Bitertanol] | – | 7.26 | 4.48 | 4.55 | < 4.19 | < 4.70 | – | 7.10 | Emax [11]: < 100%
CC1COC(Cn2cncn2)(c2ccc(Oc3ccc(Cl)cc3)cc2Cl)O1 (stereo not shown) [MMV688943, difenoconazole] | – | 7.82 | 4.49 | 4.58 | 4.35 | < 4.70 | – | 7.00 | Emax [11]: < 100%
Cc1ccc(S(=O)(=O)Nc2ccc(CN3CCN(C(=O)c4cccc(C#N)c4)CC3)cc2)cc1 [MMV689028] | – | – | – | 6.92 | 4.49 | < 4.70 | – | – | pIC50 [11, 23]: 6.17; pIC50 [1, 12]: 6.62; pIC50 [2, 20]: 5.92; pIC50 ([3]; read-out: T. brucei brucei IC50, PBox): 6.85; activity against T. brucei rhodesiense [4]: demonstrated activity
COc1ccc(S(=O)(=O)Nc2ccc(CN3CCN(C(=O)c4cccc(C#N)c4)CC3)cc2)cc1 [MMV689029] | 5.97 | 5.57 | 6.30 | 6.40 | 4.28 | < 4.70 | – | 5.86 | activity against T. brucei rhodesiense [4]: demonstrated activity
